Target: T1, Angiotensin II Receptor (Bos taurus, UniProt P25104)
T1 construct: The brownish tissue forming the adrenal cortex is scraped off and finely minced with scissors before homogenization; tissue local slaughter house (Maxwell--Cohen); host or cells: beef adrenal cortex, microsomal membranes (100,000×g pellet)
T1 sequence (P25104 1-359): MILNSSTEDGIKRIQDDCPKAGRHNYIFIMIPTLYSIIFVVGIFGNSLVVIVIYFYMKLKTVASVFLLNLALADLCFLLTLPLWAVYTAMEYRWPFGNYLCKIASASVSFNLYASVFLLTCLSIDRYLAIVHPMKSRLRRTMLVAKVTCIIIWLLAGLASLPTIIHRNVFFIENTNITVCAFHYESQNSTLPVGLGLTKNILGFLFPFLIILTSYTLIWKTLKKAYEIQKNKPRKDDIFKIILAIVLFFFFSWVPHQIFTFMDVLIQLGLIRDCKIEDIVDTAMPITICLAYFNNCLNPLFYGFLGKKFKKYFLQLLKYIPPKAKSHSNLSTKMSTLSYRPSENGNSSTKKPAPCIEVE
Experiment: Receptor Binding Assay: binding of [125I](Sar1,Ile8)AngII to beef adrenal cortex membranes
Settings: radioligand, beef adrenal membranes; non-specific with 1.0 uM unlabeled (Sar1,Ile8)AngII
Text: [^125 I](Sar^1,Ile^8)AngII, S.A. 2200 Ci/mmole, is purchased from Dupont (NEN®, Boston, Mass.). All unlabeled AngII analogs, Dimethylsulfoxide (DMSO), nucleotides, bovine serum albumin (BSA) are purchased from Sigma Chemical Co., St. Louis, Mo. U.S.A.
Approximately sixteen (16) to twenty (20) beef adrenal glands are processed as follows: fresh adrenal glands received on crushed ice are cleaned of fatty tissues and the tough membranes encapsulating the glands are removed and discarded. The brownish tissue forming the adrenal cortex is scraped off and finely minced with scissors before homogenization. Care is taken to avoid contamination with medullary tissue during dissection. The scraped cortices are suspended in twenty volumes of an ice-cold buffer medium consisting of 10 mM Tris.HCl (pH 7.4 at 22° C.) and containing 1.0 mM EDTA and 0.2M sucrose. Unless otherwise indicated, all subsequent operations are done at 4° C. […] The homogenate is centrifuged first at low speed (3,000×g) for 10 min. […] This P2 pellet is discarded and the liquid phase is carefully decanted off in clean centrifuge tubes and recentrifuged at high speed (100,000×g) for 60 min. The translucent final pellet is harvested and combined in a small volume (20-50.0 ml) of 50.0 mM Tris.HCl buffer, pH 7.2. […] The pelleted membrane is reconstituted in 50.0 mM Tris.HCl buffer containing 0.1 mM of phenylmethylsulfonyl fluoride (PMSF) to give approximately a protein concentration of 2.5 mg per ml of tissue suspension. The membrane preparation is finally aliquoted in 1.0 ml volumes and stored at -70° C. until use in the binding assays.
In competition studies, experimental compounds are diluted in dimethylsulfoxide (DMSO) and added in 20 ul to wells before the introduction of tissue membranes. […] Assays are performed in triplicate. The wells are left undisturbed for 60 min. at room temperature. […] The filters are removed from the filter grid and counted in a Parkard® Cobra Gamma Counter for 1 min. […] The binding data are analyzed by the non-linear interactive "LUNDON-1" program (LUNDON SOFTWARE Inc., Cleveland, Ohio U.S.A.).

Specific binding: greater than 90%
Substance: [^125 I](Sar^1,Ile^8) AngII [reference compound]
